Literature values in patent publication US9781921B2, “Emulsifiable concentrate formulation” (Huntsman Corporation Australia Pty Limited, priority 2012, dated 2017).

Test system: mouse
Conditions: summary of Table 2

## CC(=O)OCc1ccccc1 [Benzyl Acetate, benzyl acetate]
  Toxicity: relatively low toxicity
